≈ marks a conversion by molar mass, not a printed value. Values belong to the molecule of their own block, whether it stands above or below them.
How the values were obtained:
[1] = target: c-Jun N-terminal kinase, JNK (Homo sapiens, UniProt P45983+P53779+P45984); assay: Inhibition of JNK-mediated c-Jun activation in TNFalpha-induced human SW1353 cells preincubated for 30 mins prior to TNFalpha treatment measured after 20 mins; format: cell-based
[2] = target: Mitogen-activated protein kinase 8 (Homo sapiens, UniProt P45983); assay: Inhibition of human JNK1alpha1 using GST-tagged ATF2 as substrate preincubated for 10 mins prior to substrate addition measured after 30 mins by microplate scintillation counting analysis
Mitogen-activated protein kinase 8, sequence (P45983 whole entry): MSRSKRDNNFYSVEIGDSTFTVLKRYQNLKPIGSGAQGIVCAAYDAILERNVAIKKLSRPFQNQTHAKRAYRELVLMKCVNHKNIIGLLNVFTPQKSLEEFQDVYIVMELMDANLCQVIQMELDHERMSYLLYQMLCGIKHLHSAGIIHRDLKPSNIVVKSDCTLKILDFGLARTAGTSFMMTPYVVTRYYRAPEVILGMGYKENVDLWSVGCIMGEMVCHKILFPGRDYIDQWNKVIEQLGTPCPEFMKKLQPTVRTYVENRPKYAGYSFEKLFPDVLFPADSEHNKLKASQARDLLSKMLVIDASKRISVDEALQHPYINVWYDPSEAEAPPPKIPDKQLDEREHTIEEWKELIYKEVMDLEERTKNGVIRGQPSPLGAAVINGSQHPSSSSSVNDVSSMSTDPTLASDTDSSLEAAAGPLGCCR

[3] = Permeability from apical to basolateral side in human Caco2 cells; format: ADME, cell-based; conditions: Caco-2
[4] = Solubility of the compound in phosphate buffer at pH 6.4; format: physicochemical
Caco-2 = assay: Efflux ratio of permeability from […] side in human Caco2 cells; format: ADME, cell-based
[5] = Half life in rat at 2 mg/kg, po; format: ADME, organism-based; set-up: dose 2 mg/kg, route oral; conditions: in vivo
[6] = Oral bioavailability in dog at 2 mg/kg; format: ADME, organism-based, Canis lupus familiaris; conditions: in vivo
[7] = Clearance in dog at 0.5 mg/kg, iv; format: ADME, organism-based, Canis lupus familiaris; set-up: dose 0.5 mg/kg, route intravenous; conditions: in vivo
[8] = Half life in dog at 2 mg/kg, po; format: ADME, organism-based, Canis lupus familiaris; set-up: dose 2 mg/kg, route oral; conditions: in vivo
[9] = Half life in rat at 0.5 mg/kg, iv; format: ADME, organism-based; set-up: dose 0.5 mg/kg, route intravenous; conditions: in vivo
[10] = Clearance in rat at 0.5 mg/kg, iv; format: ADME, organism-based; set-up: dose 0.5 mg/kg, route intravenous; conditions: in vivo
[11] = Half life in dog at 0.5 mg/kg, iv; format: ADME, organism-based, Canis lupus familiaris; set-up: dose 0.5 mg/kg, route intravenous; conditions: in vivo
[12] = Oral bioavailability in rat at 2 mg/kg; format: ADME, organism-based; conditions: in vivo
[13] = target: Mitogen-activated protein kinase 9 (Homo sapiens, UniProt P45984); assay: Inhibition of human JNK2alpha2 using GST-tagged ATF2 as substrate preincubated for 10 mins prior to substrate addition measured after 30 mins by microplate scintillation counting analysis
Mitogen-activated protein kinase 9, sequence (P45984 whole entry): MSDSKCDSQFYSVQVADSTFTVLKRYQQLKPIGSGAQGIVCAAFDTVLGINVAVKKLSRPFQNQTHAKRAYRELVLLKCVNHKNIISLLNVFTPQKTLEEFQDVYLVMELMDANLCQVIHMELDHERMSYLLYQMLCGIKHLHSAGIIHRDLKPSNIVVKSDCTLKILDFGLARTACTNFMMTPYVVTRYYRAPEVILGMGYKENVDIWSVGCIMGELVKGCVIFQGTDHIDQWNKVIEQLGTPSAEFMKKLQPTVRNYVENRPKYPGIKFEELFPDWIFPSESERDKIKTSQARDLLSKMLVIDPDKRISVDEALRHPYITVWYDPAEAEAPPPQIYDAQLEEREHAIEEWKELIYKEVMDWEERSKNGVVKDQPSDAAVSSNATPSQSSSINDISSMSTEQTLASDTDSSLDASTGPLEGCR

SMILES: CS(=O)(=O)N[C@H]1CC[C@H](Nc2nccc(-n3ccc4c(N5CCC(S(C)(=O)=O)CC5)cccc43)n2)CC1
- IC50 [1]: 710 nM

SMILES: CS(=O)(=O)N[C@H]1CC[C@H](Nc2nccc(-n3ccc4c(N5CCN(C(=O)CC#N)CC5)cccc43)n2)CC1
- IC50 [2]: 5 nM
- IC50 [1]: 200 nM

SMILES: CS(=O)(=O)C1CCN(c2cccc3c2cnn3-c2ccnc(N[C@H]3CC[C@H](O)CC3)n2)CC1
- Papp A→B [3]: 3.8 ×10⁻⁶ cm/s
- IC50 [2]: 6 nM
- solubility [4]: 3.5 µg/mL (≈ 7.44 µM)
- IC50 [1]: 290 nM
- Ratio (Caco-2): 5

SMILES: CC(=O)N[C@H]1CC[C@H](Nc2nccc(-n3ccc4c(N5CCC(S(C)(=O)=O)CC5)cccc43)n2)CC1
- IC50 [2]: 7 nM
- IC50 [1]: 700 nM

SMILES: CS(=O)(=O)C1CCN(c2cccc3c2ccn3-c2ccnc(N[C@H]3CC[C@H](C(=O)N4CCn5cnnc5C4)CC3)n2)CC1
- Papp A→B [3]: 0.1 ×10⁻⁶ cm/s

Second part, the molecule after the results:

- half-life [5]: 2 h
- Papp A→B [3]: 10.5 ×10⁻⁶ cm/s
- bioavailability [6]: 15%
- clearance [7]: 10.6 mL/min/kg
- solubility [4]: 5.2 µg/mL (≈ 11.1 µM)
- half-life [8]: 3.4 h
- half-life [9]: 0.7 h
- clearance [10]: 47 mL/min/kg
- half-life [11]: 4.5 h
- bioavailability [12]: 100%
- IC50 [13]: 20 nM
SMILES: CS(=O)(=O)C1CCN(c2cccc3c2ccn3-c2ccnc(N[C@H]3CC[C@H](O)CC3)n2)CC1

- Papp A→B [3]: 0.4 ×10⁻⁶ cm/s
SMILES: CS(=O)(=O)C1CCN(c2cccc3c2ccn3-c2ccnc(N[C@H]3CC[C@H](C(=O)N4CCC(O)CC4)CC3)n2)CC1

Source: ChEMBL document CHEMBL2390842, “Development of indole/indazole-aminopyrimidines as inhibitors of c-Jun N-terminal kinase (JNK): optimization for JNK potency and physicochemical properties” (Bioorg Med Chem Lett, 2013)
